This is an account of results in patent US20090036420A1, “BENZAMIDE DERIVATIVES AND THEIR USE FOR TREATING CNS DISORDERS” (priority 2007, published 2009).

The structures appear in SMILES notation. Like-named read-outs stand apart in the source and are kept apart here.

The target of the assay is T1, TAAR1 (Mus musculus, UniProt Q923Y8).
T1 construct: expressed in transfected cells; host or cells: HEK293 cells (ATCC #CRL-1573), stably transfected with pIRESneo2 expression plasmid; membrane preparation
T1 sequence (Q923Y8 whole entry): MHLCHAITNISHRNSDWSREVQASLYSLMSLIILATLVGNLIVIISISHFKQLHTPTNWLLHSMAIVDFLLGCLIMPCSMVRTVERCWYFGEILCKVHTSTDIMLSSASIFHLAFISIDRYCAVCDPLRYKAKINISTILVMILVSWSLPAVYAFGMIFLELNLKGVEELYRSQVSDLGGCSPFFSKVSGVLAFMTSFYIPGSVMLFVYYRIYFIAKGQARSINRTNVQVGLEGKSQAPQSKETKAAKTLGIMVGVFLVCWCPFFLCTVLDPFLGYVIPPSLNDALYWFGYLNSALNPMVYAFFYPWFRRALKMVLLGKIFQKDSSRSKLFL
Put plainly: Radioligand binding assay on membranes of HEK293 cells stably expressing TAAR1. The note with it: radioligand [3H]-rac-2-(1,2,3,4-tetrahydro-1-naphthyl)-2-imidazoline 60 nM, 4° C., 30 min. The protocol: The Expand High Fidelity PCR System (Roche Diagnostics) was used with 1.5 mM Mg^2+ and purified PCR products were cloned into pCR2.1-TOPO cloning vector (Invitrogen) following the instructions of the manufacturer. PCR products were subcloned into the pIRESneo2 vector (BD Clontech, Palo Alto, Calif.), and expression vectors were sequence verified before introduction in cell lines.
For the generation of stably transfected cell lines HEK293 cells were transfected with the pIRESneo2 expression plasmids containing the TAAR coding sequences (described above) with Lipofectamine 2000 (Invitrogen) according to the instructions of the manufacturer, and 24 hrs post transfection the culture medium was supplemented with 1 mg/ml G418 (Sigma, Buchs, Switzerland). After a culture period of about 10 d clones were isolated, expanded and tested for responsiveness to trace amines (all compounds purchased from Sigma) with the cAMP Biotrak Enzyme immunoassay (EIA) System (Amersham) following the non-acetylation EIA procedure provided by the manufacturer.
Cells at confluence were rinsed with ice-cold phosphate buffered saline without Ca^2+ and Mg^2+ containing 10 mM EDTA and pelleted by centrifugation at 1000 rpm for 5 min at 4° C. The pellet was then washed twice with ice-cold phosphate buffered saline and cell pellet was frozen immediately by immersion in liquid nitrogen and stored until use at −80° C. Cell pellet was then suspended in 20 ml HEPES-NaOH (20 mM), pH 7.4 containing 10 mM EDTA, and homogenized with a Polytron (PT 3000, Kinematica) at 10,000 rpm for 10 s. The homogenate was centrifuged at 48,000×g for 30 min at 4° C. and the pellet resuspended in 20 ml HEPES-NaOH (20 mM), pH 7.4 containing 0.1 mM EDTA (buffer A), and homogenized with a Polytron at 10,000 rpm for 10 s. The homogenate was then centrifuged at 48,000×g for 30 min at 4° C. and the pellet resuspended in 20 ml buffer A, and homogenized with a Polytron at 10,000 rpm for 10 s. Protein concentration was determined by the method of Pierce (Rockford, Ill.). […] Non-specific binding was defined as the amount of [^3H]-rac-2-(1,2,3,4-tetrahydro-1-naphthyl)-2-imidazoline bound in the presence of the appropriate unlabelled ligand (10 μM). Competing ligands were tested in a wide range of concentrations (10 pM-30 μM). […] Each experiment was performed in duplicate. All incubations were terminated by rapid filtration through UniFilter-96 plates (Packard Instrument Company) and glass filter GF/C, pre-soaked for at least 2 h in polyethylenimine 0.3%, and using a Filtermate 96 Cell Harvester (Packard Instrument Company). The tubes and filters were then washed 3 times with 1 ml aliquots of cold buffer B. Filters were not dried and soaked in Ultima gold (45 μl/well, Packard Instrument Company) and bound radioactivity was counted by a TopCount Microplate Scintillation Counter (Packard Instrument Company).

Where [1] appears, read: read-out: Ki value (μM) in mouse.

As to `COc1cccc(NC(=O)c2ccc(F)c(S(=O)(=O)N3CC(C)CC(C)C3)c2)c1` (racemic) [Example 167, (rac,meso)-3-(3,5-Dimethyl-piperidine-1-sulfonyl)-4-fluoro-N-(3-methoxy-phenyl)-benzamide], the Ki under setting [1] was found to be 0.004 µM.

As to `COc1cccc(NC(=O)c2ccc(N3CC(C)CC(C)C3)c(C(F)(F)F)c2)c1` (racemic) [Example 194, (rac,meso)-4-(3,5-Dimethyl-piperidin-1-yl)-N-(3-methoxy-phenyl)-3-trifluoromethyl-benzamide], the Ki under setting [1] came to 0.007 µM.

As for `O=C(Nc1ccccc1)c1ccc(Cl)c(C(F)(F)F)c1` [Example 6, 4-Chloro-N-phenyl-3-trifluoromethyl-benzamide], under setting [1], the inhibitory constant (Ki) came out at 0.098 µM.

For the compound `COc1cccc(NC(=O)c2ccc(Cl)c([N+](=O)[O-])c2)c1` [Example 12, 4-Chloro-N-(3-methoxy-phenyl)-3-nitro-benzamide], the Ki under setting [1] came out at 0.037 µM.

As to `COc1cccc(NC(=O)c2ccc(N3CCC(C)CC3)c([N+](=O)[O-])c2)c1` [Example 27, N-(3-Methoxy-phenyl)-4-(4-methyl-piperidin-1-yl)-3-nitro-benzamide], the Ki under setting [1] worked out at 0.002 µM.

As for `COc1cccc(NC(=O)c2ccc(Br)c([N+](=O)[O-])c2)c1` [Example 42, 4-Bromo-N-(3-methoxy-phenyl)-3-nitro-benzamide], the Ki under setting [1] is 0.021 µM.

Regarding `O=C(Nc1cccc(Cl)c1)c1cnc(Cl)c(Cl)c1` [Example 47, 5,6-Dichloro-N-(3-chloro-phenyl)-nicotinamide], the inhibition constant (Ki) under setting [1] came out at 0.079 µM.

For the compound `COc1cccc(NC(=O)c2ccc(F)c(Cl)c2)c1` [Example 70, 3-Chloro-4-fluoro-N-(3-methoxy-phenyl)-benzamide], the Ki under setting [1] came to 0.1 µM.

Take `COc1cccc(NC(=O)c2ccc(F)c(C(F)(F)F)c2)c1` [Example 73, 4-Fluoro-N-(3-methoxy-phenyl)-3-trifluoromethyl-benzamide]: the Ki under setting [1] stood at 0.03 µM.

On to `COc1cccc(NC(=O)c2cnc(Cl)c(Cl)c2)c1` [Example 78, 5,6-Dichloro-N-(3-methoxy-phenyl)-nicotinamide], for which, under setting [1], the Ki came out at 0.048 µM.

`O=C(Nc1cccc(Cl)c1)c1ccc(N2CCNCC2)nc1` [Example 84, N-(3-Chloro-phenyl)-6-piperazin-1-yl-nicotinamide]: the inhibition constant Ki under setting [1] turned out to be 0.076 µM.

As for `COc1cccc(NC(=O)c2ccc(F)c([N+](=O)[O-])c2)c1` [Example 85, 4-Fluoro-N-(3-methoxy-phenyl)-3-nitro-benzamide], under setting [1], the Ki was found to be 0.09 µM.

On to `CCCNc1ccc(C(=O)Nc2cccc(OC)c2)cc1[N+](=O)[O-]` [Example 87, N-(3-Methoxy-phenyl)-3-nitro-4-propylamino-benzamide], for which, under setting [1], the Ki amounted to 0.004 µM.

For `COc1cccc(NC(=O)c2ccc(NCc3ccccc3)c([N+](=O)[O-])c2)c1` [Example 88, 4-Benzylamino-N-(3-methoxy-phenyl)-3-nitro-benzamide], the Ki under setting [1] worked out at 0.005 µM.

Turning to `CCNc1ccc(C(=O)Nc2cccc(OC)c2)cc1[N+](=O)[O-]` [Example 90, 4-Ethylamino-N-(3-methoxy-phenyl)-3-nitro-benzamide], the Ki under setting [1] amounted to 0.024 µM.

With `COc1cccc(NC(=O)c2ccc(NC(C)C)c([N+](=O)[O-])c2)c1` [Example 91, 4-Isopropylamino-N-(3-methoxy-phenyl)-3-nitro-benzamide], under setting [1], the inhibitory constant (Ki) was determined as 0.012 µM.

Regarding `COc1cccc(NC(=O)c2ccc(N3CCC3)c([N+](=O)[O-])c2)c1` [Example 92, 4-Azetidin-1-yl-N-(3-methoxy-phenyl)-3-nitro-benzamide], the Ki under setting [1] is 0.029 µM.

On to `COc1cccc(NC(=O)c2ccc(N3CCCC3)c([N+](=O)[O-])c2)c1` [Example 93, N-(3-Methoxy-phenyl)-3-nitro-4-pyrrolidin-1-yl-benzamide], for which the Ki under setting [1] was found to be 0.013 µM.

As for `COc1cccc(NC(=O)c2ccc(N3CCCCC3)c([N+](=O)[O-])c2)c1` [Example 94, N-(3-Methoxy-phenyl)-3-nitro-4-piperidin-1-yl-benzamide], the inhibition constant (Ki) under setting [1] came to 0.012 µM.

As for `COc1cccc(NC(=O)c2ccc(Nc3ccccc3)c([N+](=O)[O-])c2)c1` [Example 97, N-(3-Methoxy-phenyl)-3-nitro-4-phenylamino-benzamide], the inhibition constant Ki under setting [1] was 0.029 µM.

Turning to `CN1CCN(c2ccc(C(=O)Nc3cccc(Cl)c3)cn2)CC1` [Example 135, N-(3-Chloro-phenyl)-6-(4-methyl-piperazin-1-yl)-nicotinamide], under setting [1], the Ki amounted to 0.009 µM.

Consider `COc1cccc(NC(=O)c2ccc(N3CCCC3)c(C(F)(F)F)c2)c1` [Example 137, N-(3-Methoxy-phenyl)-4-pyrrolidin-1-yl-3-trifluoromethyl-benzamide], for which the inhibitory constant (Ki) under setting [1] was determined as 0.002 µM.

For the compound `COCCNc1ccc(C(=O)Nc2cccc(OC)c2)cc1C(F)(F)F` [Example 139, 4-(2-Methoxy-ethylamino)-N-(3-methoxy-phenyl)-3-trifluoromethyl-benzamide], the inhibition constant Ki under setting [1] stood at 0.077 µM.

In the case of `COc1cccc(NC(=O)c2ccc(N3CCC3)c(C(F)(F)F)c2)c1` [Example 140, 4-Azetidin-1-yl-N-(3-methoxy-phenyl)-3-trifluoromethyl-benzamide], the Ki under setting [1] came to 0.016 µM.

As to `COc1cccc(NC(=O)c2ccc(N3CCCCC3)c(C(F)(F)F)c2)c1` [Example 141, N-(3-Methoxy-phenyl)-4-piperidin-1-yl-3-trifluoromethyl-benzamide], the inhibition constant (Ki) under setting [1] was found to be 0.038 µM.

As for `COc1cccc(NC(=O)c2ccc(N3CCC(C)CC3)c(C(F)(F)F)c2)c1` [Example 143, N-(3-Methoxy-phenyl)-4-(4-methyl-piperidin-1-yl)-3-trifluoromethyl-benzamide], the Ki under setting [1] worked out at 0.007 µM.

`CCCNc1ccc(C(=O)Nc2cccc(OC)c2)cc1C(F)(F)F` [Example 144, N-(3-Methoxy-phenyl)-4-propylamino-3-trifluoromethyl-benzamide]: the inhibition constant Ki under setting [1] is 0.032 µM.

Regarding `CCCCNc1ccc(C(=O)Nc2cccc(OC)c2)cc1C(F)(F)F` [Example 145, 4-Butylamino-N-(3-methoxy-phenyl)-3-trifluoromethyl-benzamide], the affinity (Ki value (μM) in mouse), expressed as Ki, was 0.01 µM.

With `COc1cccc(NC(=O)c2ccc(NCc3ccccc3)c(C(F)(F)F)c2)c1` [Example 147, 4-Benzylamino-N-(3-methoxy-phenyl)-3-trifluoromethyl-benzamide], the inhibition constant Ki under setting [1] was determined as 0.005 µM.

On to `CCNc1ccc(C(=O)Nc2cccc(OC)c2)cc1C(F)(F)F` [Example 148, 4-Ethylamino-N-(3-methoxy-phenyl)-3-trifluoromethyl-benzamide], for which the Ki under setting [1] is 0.022 µM.

On to `COc1cccc(NC(=O)c2ccc(NC(C)C)c(C(F)(F)F)c2)c1` [Example 149, 4-Isopropylamino-N-(3-methoxy-phenyl)-3-trifluoromethyl-benzamide], for which, under setting [1], the inhibitory constant (Ki) was determined as 0.022 µM.

The compound `COc1cccc(NC(=O)c2ccc(N3CCOCC3)c(C(F)(F)F)c2)c1` [Example 150, N-(3-Methoxy-phenyl)-4-morpholin-4-yl-3-trifluoromethyl-benzamide] displayed an inhibition constant Ki (Ki value (μM) in mouse) of 0.086 µM.

In the case of `CNc1ncc(C(=O)Nc2cccc(Cl)c2)cc1Cl` [Example 151, 5-Chloro-N-(3-chloro-phenyl)-6-methylamino-nicotinamide], the Ki under setting [1] was determined as 0.096 µM.

As to `CC(C)Nc1ncc(C(=O)Nc2cccc(Cl)c2)cc1Cl` [Example 152, 5-Chloro-N-(3-chloro-phenyl)-6-isopropylamino-nicotinamide], the Ki under setting [1] is 0.027 µM.

As for `COCCNc1ncc(C(=O)Nc2cccc(Cl)c2)cc1Cl` [Example 153, 5-Chloro-N-(3-chloro-phenyl)-6-(2-methoxy-ethylamino)-nicotinamide], the Ki under setting [1] turned out to be 0.035 µM.

Regarding `O=C(Nc1cccc(Cl)c1)c1cnc(N2CCCC2)c(Cl)c1` [Example 154, 5-Chloro-N-(3-chloro-phenyl)-6-pyrrolidin-1-yl-nicotinamide], the Ki under setting [1] turned out to be 0.014 µM.

With `CC1CCN(c2ncc(C(=O)Nc3cccc(Cl)c3)cc2Cl)CC1` [Example 155, 3′-Chloro-4-methyl-3,4,5,6-tetrahydro-2H-[1,2′]bipyridinyl-5′-carboxylicacid (3-chloro-phenyl)-amide], for the setting “Ki value (μM) in mouse”, the inhibitory constant (Ki) came out at 0.023 µM.
